Measurements reported in the METLIN SMRT retention time set (Domingo-Almenara et al. 2019).

Experiment: gradient 5% acetonitrile 3 min, to 50% in 2 min, to 85% in 15 min, held 3 min, 100 µL/min
Settings: column: Zorbax Extend-C18 2.1 x 50 mm; eluents: water / acetonitrile, 0.1% formic acid
Outline: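 Retention time was recorded from adduct peaks, which were picked computationally and each inspected manually. Pure standards ran in mixtures of ~100 molecules on HPLC coupled to a quadrupole time-of-flight mass spectrometer, in positive and negative ionization mode, through a Zorbax Extend-C18 column (2.1 × 50 mm, 1.8 μm) at 100 μL/min. Eluents were water and acetonitrile, each with 0.1% formic acid.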

SMILES	RP-LC retention time
C[C@H](CSC(=O)c1ccccc1)C(=O)N1c2ccccc2C[C@H]1C(=O)O	877 s
Cc1ccc(C)c(NC(=O)CSc2nncn2C)c1	618 s
CCOC(=O)C1CCN(c2nnc(-c3nc(C4CC4)no3)c3ccccc23)CC1	953 s
CCc1noc(-c2c(S(=O)(=O)NC3CCCC3)c(C)n(C)c2C)n1	833 s
CC1Cc2cc(S(=O)(=O)N3CCC(C(N)=O)(N4CCCCC4)CC3)ccc2N1C(=O)C1CC1 (stereo not drawn)	630 s
O=c1n(Cc2cccc(C(F)(F)F)c2)nc2ccc(S(=O)(=O)N3CCCCC3)cn12	1030 s
Cc1ccn2c(NC(=O)c3cccc(C(F)(F)F)c3)c(-c3ccccc3)nc2c1	736 s
O=C(NCCCN1CCOCC1)c1ccc2c(c1)NC(=O)C1CCCCN21 (stereo not drawn)	582 s
CN(C)S(=O)(=O)N1CC[C@@H]2C(=O)NCCCCCCN(Cc3ccncc3)[C@@H]2C1	603 s
CC(C)C(=O)Nc1ccc(CCc2nc3ccc(C(=O)NCc4ccco4)cc3[nH]2)cc1	635 s
Cc1cc(C)cc(NC(=O)C2CCN(c3c(C(=O)N4CCC(C)CC4)cnc4snc(C)c34)CC2)c1	1100 s
O=C(NCCCN1CCCC1=O)c1ccc(-n2nnc3cccnc32)cc1	637 s
Cn1c(N)c(C(=O)c2ccco2)c(=O)n(C)c1=O	560 s
COc1ccc(N2CCN(C(=O)c3cc(-c4ccncc4)cn3C)CC2)cc1	599 s
COCc1c(C(=O)O)nnn1-c1ccc(C(F)(F)F)cc1	775 s
Cc1c(-c2ccnc(N3CCC(C)CC3)n2)cnc2nc(-c3ccccc3)nn12	1320 s
CCCCc1ccc(NC(=O)Cn2nc3cc(C)nc(-c4ccc(OC)cc4)n3c2=O)cc1	1040 s
CCOc1ccc(CNC(=O)CN2C(=O)CSc3cccn3-c3ccccc32)cc1	914 s
Cc1ccc(Cn2nc3ccc(S(=O)(=O)N4CCC(C)CC4)cn3c2=O)cc1	1060 s
CS(=O)(=O)N1C[C@H]2CCN(Cc3cccc(Cl)c3F)C[C@H]21	607 s
CCn1c(C2CCN(C(=O)c3ccc(C(F)(F)F)s3)C2)nc2cccnc21 (stereo not drawn)	782 s
CC(COc1ccccc1Cc1ccccc1)N1CCCCC1 (stereo not drawn)	852 s

SMILES	RP-LC retention time
CCCCOc1ccc(C(=O)Oc2coc(CSc3nncn3C)cc2=O)cc1	739 s
CCN1CCC2(CC1)OC(=O)C(C)=C2C(=O)NCCCc1ccccc1	654 s
Cc1nc(N2CCN(c3ccccn3)CC2)nc2c1C(=O)CC(c1ccc(F)cc1)C2 (stereo not drawn)	755 s
COc1ccc(N2C(=O)C3N=NN(Cc4nc(-c5ccc6c(c5)OCO6)no4)C3C2=O)cc1OC (stereo not drawn)	834 s
Cc1ccccc1-n1ccn(Cc2nc(-c3ccc(Cl)cc3)no2)c(=O)c1=O	912 s
CC(C)N1CCn2cc(S(=O)(=O)Nc3ccc(F)c(F)c3)cc2C1=O	794 s
Cc1ccccc1-c1noc(C2CCCN2C(=O)Nc2cccc(F)c2)n1 (stereo not drawn)	1030 s
Cc1ccc(NC(=O)C2CCN(S(C)(=O)=O)c3ccccc3O2)cc1Cl (stereo not drawn)	985 s
Cc1ccccc1-c1noc(CCn2nc(-c3ccc4c(c3)OCO4)ccc2=O)n1	945 s
O=C(NC1CCCCCC1)C1CCCN(C(=O)c2cc(-c3ccncc3)n[nH]2)C1 (stereo not drawn)	627 s
COc1ccc(Cn2nnc(C(=O)O)c2C)cc1F	645 s
CCN1c2ccc(F)cc2C(=O)NC12CCN(C(=O)c1cccc(C)c1)CC2	827 s
COc1cccc(C2Cn3nnc(-c4nc(-c5ccc(OC(F)(F)F)cc5)no4)c3CO2)c1 (stereo not drawn)	1310 s
COC(=O)c1cnc2nc(C)ccc2c1Nc1ccc(C)c(Cl)c1	733 s
O=C(NCc1ccc(Cl)cc1)C(=O)NCC1CCCO1 (stereo not drawn)	762 s
COCc1nncn1C1CCN(S(=O)(=O)c2cc(Cl)ccc2OC)CC1	736 s
O=C(NC(NC(=O)c1ccccc1)c1ccccc1)c1ccccc1	765 s
CC1CCN(S(=O)(=O)c2nn(C)cc2C(=O)NCc2ccc3c(c2)OCO3)CC1	832 s
Cc1cc(C(=O)Nc2ccc(C)c(F)c2)n(CC(=O)Nc2ccc(F)cc2)n1	922 s
Cc1ccc(-n2nc(N3CCCC(C(=O)NCCC4=CCCCC4)C3)ccc2=O)cc1Cl (stereo not drawn)	1060 s
COCCCNC(=O)C1CCN(c2ccc(Sc3cccc(F)c3)nn2)CC1	675 s
O=C(NC1CCCC1)C1(CCO)CCN(Cc2ccccc2)C1 (stereo not drawn)	609 s

SMILES	RP-LC retention time
O=C1CCCCC(Cc2ccccc2)(C(=O)NC2CCS(=O)(=O)C2)N1 (stereo not drawn)	656 s
CCC1Oc2ccc(S(=O)(=O)N3CCC(C(=O)N4CCCC4)CC3)cc2NC1=O (stereo not drawn)	730 s
CC1CCN(c2nn(CC(=O)Nc3cccc(C(C)C)c3)c(=O)c3ccccc23)CC1	1320 s
COc1cc(C(=O)Nc2cnn(C)c(=O)c2N2CCCCC2)cc(OC)c1OC	878 s
COC(=O)c1ccc(NC(=O)N2[C@H]3CC[C@@H]2c2cnc(-c4ccc(F)cc4)nc2C3)cc1	993 s
CCN(CC)CCNC(=O)c1ccc(-c2nc(CCN(C)C(C)=O)no2)cc1	576 s
COC(=O)c1ccc2c(=O)n(Cc3ccc(F)cc3)c(N3CCOCC3)nc2c1	975 s
CCOc1ccc(NC(=O)Nc2nccn(-c3cc(Cl)ccc3C)c2=O)cc1	1060 s
CCCCN1C(=O)CN(S(=O)(=O)c2ccccc2)CC1(C)C(=O)NCc1ccc(F)cc1 (stereo not drawn)	945 s
COC(=O)c1c(C)c(C(=O)C(C)N(Cc2ccc(F)cc2)C(=O)C(C)C)c(C)n1C (stereo not drawn)	990 s
CCN1CCN(C(=O)CS(=O)Cc2cnn(-c3ccccc3)c2-n2cccc2)CC1 (stereo not drawn)	614 s
CCc1ccc(-n2ncc3c(=O)n(Cc4nc(-c5ccc(C)c(C)c5)no4)cnc32)cc1	1300 s
CCN1CCN(Cc2ccc(C(=O)NCc3ccccc3C(F)(F)F)cc2)C(=O)C1=O	721 s
COc1ccc(S(=O)(=O)CCc2noc(C(=O)NCCN3CCC(C)CC3)n2)cc1	646 s
c1cc(N2CCSCC2)ncc1-c1noc(CN2CCSCC2)n1	815 s
Cc1cnc(C2CCOCC2)n1CC1CN(C(=O)C2CC=CC2)C1	568 s
Cc1cc(NC(=O)CSc2ccc3nnc(-c4cccs4)n3n2)no1	620 s
COc1ccc(-c2nc3cnc(Br)cn3c2Nc2ccc(OC)c(OC)c2)cc1	852 s
CC1=C(c2ccc(F)cc2)S(=O)(=O)N=C1N1CCCN(C(=O)CCC(C)C)CC1	879 s
CC(=O)c1sc2nc(SC/C=C/c3ccccc3)[nH]c(=O)c2c1C	977 s
CCC(C)C(NC(=O)c1ccccc1)C(=O)Nc1nc2ccccc2[nH]1 (stereo not drawn)	718 s
CC1CCN(C(=O)c2ccc3c(c2)CC(=O)N3C)CC1	692 s

SMILES	RP-LC retention time
O=C(Cc1ccc(NC(=O)c2ccncc2)cc1)NC1CC1	547 s
Cc1cccc(Cl)c1NC(=O)CSc1ccc(N2CCCC(C(=O)NC3CC3)C2)nn1 (stereo not drawn)	698 s
O=C(NCc1ccc(F)cc1Cl)c1csc(C(=O)N2CCCC2)n1	864 s
CCCn1cc(CCNS(=O)(=O)c2c(C)cc(C)cc2C)c2cccnc21	962 s
O=C(Cc1csc2nc(-c3cccc(Br)c3)cn12)N1CCc2ccccc21	1040 s
CCOc1ccccc1OCC(=O)c1ccc(O)cc1O	794 s
CCN(CC)C(=O)N1CCC(c2noc(COc3ccc(F)cc3)n2)C1 (stereo not drawn)	553 s
CN(C)CCOc1ccc(I)cc1Cc1ccccc1	739 s
CCOc1cccc(-c2noc(Cn3ncn4nc(-c5ccc(Br)cc5)cc4c3=O)n2)c1	1310 s
CC(C)n1c(-c2cccc(C(=O)NCc3ccco3)c2)nc2cccnc21	751 s
Cc1cnn(CCC(=O)N2CC(n3cc(COc4ccc(F)cc4)nn3)C2)c1	712 s
COc1ccc(C2C(C(=O)N3CCCCC3)c3cc(OC)c(OC)cc3C(=O)N2C)cc1OC (stereo not drawn)	706 s
COc1ccc(NS(=O)(=O)c2ccc(-c3c(C)noc3C)cc2)cc1Cl	945 s
COc1ccc(-c2cn3ccn(-c4ccc(F)cc4)c(=O)c3n2)cc1	776 s
CCc1nccn1Cc1noc(-c2ccccc2Cl)n1	564 s
Cc1cc(C)c2c(=O)n(Cc3nc(-c4ccccc4)oc3C)c(=O)n(C)c2n1	1160 s
CCn1nccc1C(=O)N1CCCN(C2=NS(=O)(=O)C(c3ccc(C)cc3)=C2C)CC1	769 s
CC(=O)Oc1ccc(C2=NN(C(C)=O)C(c3ccc(F)cc3)O2)c(OC(C)=O)c1 (stereo not drawn)	936 s
CC(NC(=O)NC1CCCCC1)C(c1cccs1)N1CCN(C)CC1 (stereo not drawn)	573 s
CCc1nc(-n2cccc2)sc1C(=O)Nc1cccc(F)c1	1170 s
Cc1c(-c2noc(C(=O)N3CCc4ccccc4C3)n2)oc2c(C)cccc12	1280 s
CCN1C(=O)COc2ccc(-c3noc(C(C)Oc4ccccc4)n3)cc21 (stereo not drawn)	1090 s
